As a reminder, the IC50 is the concentration at which inhibition is half-maximal.

Experimental findings from patent publication US20040063681A1, “Methods for using gold (III) complexes as anti-tumor and anti-HIV agents” (priority 2002, published 2004) are described below.

Each structure is given as a SMILES string. Some results are limits rather than exact numbers.

Series [1] in a line: UV-vis stability study in buffer solution with and without glutathione. It is filed as physicochemical. The conditions noted are these: room temperature. The protocol:
UV-vis experiments. For UV-vis analysis, the absorption spectra of 2.5 μM (7 nmoles) of all studied complexes in (1:19) MeCN/Tris buffer solution was monitored over 72 h. […] The gold(III) solution was monitored over 48 h at room temperature and less than 10% decrease in the Soret band intensity was observed without any significant spectral shift in both the Soret and Q-bands.
Yet, no significant spectral shift and formation of new absorption bands were observed.
This finding confirms the excellent solution stability of 1j and 1k in physiologically related medium.
The precipitates are soluble in common organic solvent such as THF, CHCl3 and DMSO but insoluble in aqueous solution.

In series [2] the test system is Human Promyelocytic Leukemia (HL-60). Kind of series: MTT cytotoxicity, HL-60. The following applies: growth inhibition. Type of series: cell-based. The source says:
(§1) Human promyelocytic leukemia (HL-60), human hepatocellular carcinoma (HepG2), Human cervix epitheloid carcinoma cells (HeLa) and human oral epidermoid carcinoma cells (KB-3-1), were obtained from American Type Culture Collection (ATCC) (Rockville, Md.). The multi-drug-resistant variant KB-V1 cell line was obtained by stepwise selections for vinblastine resistance as described by Shen et al., J. Biol. Chem. 261:7762-7770 (1986)], and was generously provided by Dr Michael Gottesman (NIH, Bethesda, Md.). Human nasopharyngeal carcinoma cells (SUNE1 and its cisplatin resistance variant, CNE1) were derived from poorly differentiated NPC in Chinese patients as described by Gu et al., Chin. J. Cancer 2:270-272 (1983), and were generously provided by Dr S. W. Tsao (The University of Hong Kong, Hong Kong, PRC). Cell culture flasks and 96 well microtitre plates were from Nalge Nunc hit. Culture medium, other medium constituents and phosphate buffered saline (PBS) were obtained from Gibco BRL (Rockville, Md.). Cell Proliferation Kit I (MTT) was purchased from Roche (Mannheim, Germany).
The anti-cancer activities of the gold(III) porphyrin complexes were evaluated toward some established human cancer cell lines: promyelocytic leukemia (HL-60), hepatocellular carcinoma (HepG2), cervix epitheloid carcinoma (HeLa), epidermoid carcinoma (KB-3-1) and its multi-drug resistant variant (KB-V1), nasopharyngeal carcinoma (SUNE1) and its cisplatin-resistant variant (CNE1). The experiments were carried out by following the MTT procedure (see Mosmann et al., J. Immunol. Methods 65:55-63 (1983). The IC50 values of the gold(III) porphyrin complexes together with that of cisplatin, and KAuCl4 are provided in Table 4a; and the IC50 values of the gold(III) Schiff-base and bis(pyridyl)carboxamide complexes are shown in Table 4b. The cytotoxicity profiles of some selected gold(III) porphyrin complexes toward SUNE1 and its cisplatin-resistant variant CNE1 are also shown in FIG. 7.

The subject of series [3] is Human Oral Epidermoid Carcinoma (multi-drug resistance, KB-V-1). Kind of series: MTT cytotoxicity, KB-V-1. Type of series: cell-based. The following applies: MTT, growth inhibition, multi-drug resistant.
Text: as §1
The anti-cancer activities of the gold(III) porphyrin complexes were evaluated toward some established human cancer cell lines: promyelocytic leukemia (HL-60), hepatocellular carcinoma (HepG2), cervix epitheloid carcinoma (HeLa), epidermoid carcinoma (KB-3-1) and its multi-drug resistant variant (KB-V1), nasopharyngeal carcinoma (SUNE1) and its cisplatin-resistant variant (CNE1).

The subject of series [4] is Human Oral Epidermoid Carcinoma (KB-3-1). Kind of series: MTT cytotoxicity, KB-3-1. Type of series: cell-based. The following applies: MTT, growth inhibition. The text has this:
Human promyelocytic leukemia (HL-60), human hepatocellular carcinoma (HepG2), Human cervix epitheloid carcinoma cells (HeLa) and human oral epidermoid carcinoma cells (KB-3-1), were obtained from American Type Culture Collection (ATCC) (Rockville, Md.). […] Cell culture flasks and 96 well microtitre plates were from Nalge Nunc hit. Culture medium, other medium constituents and phosphate buffered saline (PBS) were obtained from Gibco BRL (Rockville, Md.). Cell Proliferation Kit I (MTT) was purchased from Roche (Mannheim, Germany).

Series [5] concerns HeLa cells. The experiment in a line: Confocal microscopic experiment (cell morphology, AO/EB staining). Type of series: cell-based, human. The following applies: 0.5 μM, 15 h incubation. The text has this: Confocal Microscopic Experiment. By examining cell morphology using scanning confocal microscopy, the type of cell death can be recognized. The early phase of apoptosis is characterized by the formation of apoptotic bodies while the integrity of the cell membrane is maintained without cell lysis. On the contrary, necrosis is characterized by cell lysis with the internal cellular components such as DNA being exposed. Using suitable staining agents (ethidium bromide (EB) for DNA and acridine orange (AO) for cell membrane) normal, necrotic and apoptotic cells can be distinguished by laser confocal microscopy. See Chan et al., Inorg. Chem. 41:3161-3171 (2002).
The picture of the cells is depicted in FIG. 12. […] Importantly, no cellular DNA was exposed due to necrosis.

In series [6] the test system is human lung fibroblast cells (CCD-19Lu). The following applies: MTT. The protocol: Acute cytotoxicities of the gold(III) complexes to normal cells were evaluated using human lung fibroblast cells (CCD-19Lu) as model cell line. The percentages of cell survival at various doses of the gold complexes were determined by the MTT assay, and the toxicities profiles are shown in FIG. 15.

For series [7], the system named is HeLa cells. Kind of series: Flow cytometry annexin V/propidium iodide apoptosis assay. Type of series: cell-based, human. The source says: Flow cytometry: The gold(III) porphyrin-induced apoptosis of the HeLa cell line has been further examined by flow cytometry. During the early phase of apoptosis, cells lose the asymmetry of their membrane phospholipids, although the integrity of the cell membrane is maintained. A negatively charged phospholipid, named phosphatidylserine (PS), which is located in the inner part of the plasma membrane, becomes exposed to the cell surface. A phospholipid-binding protein, annexin V (green emissive upon binding), with high affinity binds preferentially to PS. Apoptotic cells therefore can be stained by annexin V before the dying cell changes its morphology and hydrolyzes its DNA. On the other hand, both DNA and the PS would be exposed for necrotic cells. In this case, propidium iodide (PI, red emissive upon binding), can be used to stain selectively the naked DNA. Therefore, both apoptotic and necrotic cells can be discriminated after adding these two staining reagents. For apoptotic cells, only annexin V would stain; for necrotic cells, both annexin V and PI would stain.
For comparison, a control cell culture experiment was performed in the absence of Complex 1a and straurosporine. […] Throughout the flow cytometric experiment, <1% of necrotic cells were observed.

For the compound `C1=Cc2nc1c(-c1ccccc1)c1ccc([n-]1)c(-c1ccccc1)c1nc(c(-c3ccccc3)c3ccc([n-]3)c2-c2ccccc2)C=C1.[Au+3].[Cl-]` [Complex 1a], the “decrease in the Soret band intensity” value in series [1] (2.5 μM in Tris buffer/MeCN (19:1), 48 h) is listed as “less than 10%”. Besides, the “decrease of the Soret band intensity” value in series [1] (glutathione 2 mM in Tris buffer/MeCN=19:1, 48 h) is on record as “about 27%”. For the same compound, the IC50 in series [2] amounted to 730 nM; in series [3], 120 nM; in series [4], 200 nM; in series [6] (read-out: IC50 CCD-19Lu, mean ± SE of at least three determinations), 910 ± 210 nM. Besides, the “cell morphology (type of cell death)” value in the series on HeLa cells [5] was “living cells and apoptotic cells were observed”. The compound further showed a cell death in series [6] (CCD-19Lu, 2 μM) of 90%. In addition, the “cells that underwent apoptosis” value in the series on HeLa cells [7] (6 h of incubation) is 24%. Besides, in the series on HeLa cells [7] (15 h of incubation), the “cells died via apoptosis” value was 57%. Moreover, in the series on HeLa cells [7] (after treatment (Complex 1a 6 and 15 h; straurosporine 15 h)), the “annexin V emission” value is listed as “the magnitude of the annexin V emission was enhanced”. The necrotic cells in the series with HeLa cells [7] (throughout the flow cytometric experiment) is less than 1%.
